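Values below derive from 48-hour exposures of cells grown in 96-well plates, with endpoints linearly interpolated between the two concentrations bracketing the appropriate inhibition level. Here, GI50 denotes the concentration required for 50% inhibition of growth. Definition used: TGI = concentration required for complete inhibition of growth.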

Common to all, as to assay: inhibition of tumour cell growth, NCI panel, 48 h
In assay [1] the test system is NCI-H522 lung.
The subject of assay [2] is SF-295 CNS.
Assay [3] concerns CCRF-CEM leukemia.
Assay [4] concerns MALME-3M melanoma.
For assay [5], the system named is HT29 colon.
Assay [6] deals with SK-OV-3 ovarian.
Assay [7] deals with RPMI-8226 leukemia.
Assay [8] deals with MDA-MB-435.
Assay [9] concerns A549 NSCLC.
Assay [10] concerns SNB-75 CNS.

As for `CCCC[C@@H]1CCN2C[C@@H](O)[C@@H](O)[C@H]2[C@@H]1O`, the TGI in assay [1], in [2], in assay [3], in assay [4], in assay [5] and in assay [6] was more than 100 µM each time. Also, the TGI in assay [7], in assay [8], in [9] and in assay [10] was more than 100 µM throughout.
In the case of `CCOP(=O)(OCC)c1cc(-c2ccccc2)ccc1N`, the TGI in assay [1], in [2], in [3], in assay [4], in assay [5] and in [6] was more than 100 µM throughout. The TGI in assay [7], in assay [8], in [9] and in [10] was more than 100 µM in each case.
Consider `COc1cc2c(cc1O)CC[n+]1cc3c(OC)c(OC)ccc3cc1-2`, for which the TGI in assay [1], in assay [2], in assay [3], in [4], in assay [5] and in assay [6] was more than 100 µM in each case. For the same compound, the TGI in assay [7], in [8], in assay [9] and in assay [10] was more than 100 µM throughout.
Consider `Cc1ccc(C(=O)c2[nH]c(Nc3cc(C)ccn3)c(C(=S)Nc3ccccc3)c2N)cc1`, for which the TGI in assay [1], in assay [2], in [3], in assay [4], in assay [5] and in assay [6] was more than 100 µM each time. The TGI in assay [8], in [9] and in [10] was more than 100 µM in each case.
Take `CC12CCC(C/C1=N\NC(N)=O)C2(C)C` (stereo unspecified): the TGI in assay [1], in assay [2], in assay [3], in assay [4], in assay [5] and in [6] was more than 100 µM throughout. In addition, the TGI in assay [7], in assay [8], in assay [9] and in [10] was more than 100 µM throughout.
In the case of `CCOC1NC(=O)c2ccccc21` (stereo unspecified), the TGI in assay [1], in assay [2], in [3], in [4], in assay [5] and in assay [6] was more than 100 µM throughout. Besides, the TGI in assay [7], in assay [8], in [9] and in assay [10] was more than 100 µM throughout.
For the compound `FC(F)=C(c1ccc(-c2ccc(Cl)cc2)cc1)C(F)(F)F`, the TGI in assay [1] came to 36.6 µM; in [2], 56.7 µM; in assay [3], 62.1 µM; in assay [4] it was 31.3 µM; in [5], 67.4 µM; in [6] it was 41.2 µM. In addition, the TGI in assay [7] is 51.8 µM; in assay [8], 49.4 µM; in assay [9], 37.4 µM; in [10] it was 25.6 µM.
Take `O=c1oc2ccccc2c2nc3ccccc3cc12`: the TGI in assay [1], in [2], in assay [3], in [4], in assay [5] and in assay [6] was more than 100 µM in each case. The TGI in assay [7], in [8] and in [9] was more than 100 µM each time.
Regarding `C[C@@H]1C(=O)CC2(O)[C@@]13C[C@@H](OC(=O)[C@@H]3O)[C@@H](C)[C@@]21COC1=O` (stereo partly specified), the TGI in assay [1], in assay [2], in [3], in [4], in assay [5] and in assay [6] was more than 100 µM each time. The TGI in [7], in assay [8], in assay [9] and in [10] was more than 100 µM in each case.
For `Brc1ccc2c(c1)-c1nc3c(cc1CC2)CCc1ccc(Br)cc1-3`, the TGI in [1], in assay [2], in assay [3], in assay [4], in assay [6] and in [7] was more than 100 µM in each case. The TGI in assay [8], in assay [9] and in [10] was more than 100 µM in each case.
With `CC1(C)OC(CCO)CN1C(=O)OCc1ccccc1` (stereo unspecified), the TGI in assay [1], in assay [2], in [3], in assay [4], in assay [6] and in assay [7] was more than 100 µM each time. The TGI in [8], in assay [9] and in [10] was more than 100 µM in each case.
For `COc1ccc(/C=N/Nc2nc3ccccc3c(=O)n2-c2ccccc2)c(OCc2ccccc2)c1`, the TGI in [1], in assay [2], in assay [3], in [4], in assay [5] and in assay [6] was more than 100 µM each time. Also, the TGI in assay [7], in assay [8], in assay [9] and in [10] was more than 100 µM in each case. For the same compound, the GI50 in [7] and in [10] was more than 100 µM in each case.
Consider `COC1OC2COC(C)(C)OC2C2OC(C)(C)OC12` (stereo unspecified), for which the TGI in assay [1] is more than 100 µM; in assay [2] it was more than 100 µM; in assay [3] it was 48.8 µM; in assay [4], more than 100 µM; in assay [5], more than 100 µM; in [6] it was more than 100 µM. Further, the TGI in assay [7] is 93.6 µM; in assay [8] it was more than 100 µM; in [9], more than 100 µM.
In the case of `CC[P+](C#Cc1ccccc1)(c1ccccc1)c1ccccc1`, the TGI in assay [1] was found to be 3.32 µM; in assay [2], 21.1 µM; in assay [3] it was 1.69 µM; in [4], 4.19 µM; in [5] it was 6.98 µM; in [6], 9.43 µM. Moreover, the TGI stood at 0.781 µM in assay [7], 2.83 µM in assay [8], 14.8 µM in [9] and 5.31 µM in assay [10].
On to `CCN(CC(=O)O)CC(=O)O`, for which the TGI in [1], in assay [2], in assay [3], in [4], in assay [5] and in [6] was more than 100 µM throughout. Besides, the TGI in assay [7], in assay [8], in [9] and in [10] was more than 100 µM each time.
For the compound `CC(C)(C)OC(=O)c1ccc(NCc2cc(O)ccc2O)cc1`, the TGI in [1] was found to be 0.557 µM; in [2] it was 29.3 µM; in assay [3], 3.9 µM; in [4] it was 3.99 µM; in assay [5], 33.7 µM; in assay [6], 44.3 µM. In addition, the TGI in [7] is 13 µM; in assay [8], 16.1 µM; in assay [9], more than 89.4 µM; in [10], 18.4 µM.
For `Cc1cc2c(cc1Cl)SC(NNc1cnc3ccccc3n1)=NS2(=O)=O`, the TGI in assay [1], in assay [2], in [3], in [4], in assay [5] and in [6] was more than 100 µM each time. For the same compound, the TGI in assay [8], in assay [9] and in [10] was more than 100 µM throughout.
With `COP(=O)(CC(=O)C1OC(OCc2ccccc2)C(OCc2ccccc2)C(OCc2ccccc2)C1OCc1ccccc1)OC` (stereo unspecified), the TGI in assay [1] was more than 100 µM; in [2], more than 100 µM; in assay [3] it was more than 100 µM; in assay [4], 94.5 µM; in [5], 24.2 µM; in assay [6] it was more than 100 µM. Besides, the TGI in assay [8] was 27.9 µM; in assay [9] it was more than 100 µM; in assay [10] it was 92.3 µM.
Turning to `Cc1ccc(-n2cc(-c3ccc(Cl)cc3)c3c2N=CN2NC(c4ccco4)=NC32)cc1` (stereo unspecified), the TGI in assay [1] is 90 µM; in assay [2], 27.8 µM; in assay [3], more than 100 µM; in [4], more than 100 µM; in assay [5], more than 100 µM; in assay [6] it was 16 µM. Further, the TGI in assay [8] is more than 100 µM; in assay [9], more than 100 µM; in assay [10] it was 18.1 µM.
As to `CCN(C(=O)N[C@H](C(=O)N[C@@H](C)C(=O)OC)C(C)C)c1ccccc1`, the TGI in assay [1] is 49.5 µM; in assay [2], more than 100 µM; in [3], more than 100 µM; in [4] it was 55.9 µM; in assay [5] it was more than 100 µM; in assay [6], more than 100 µM. In addition, the TGI was more than 100 µM in [7], 52.2 µM in [8], more than 100 µM in assay [9] and more than 100 µM in assay [10].
With `O=C(CN=C(CN(c1ccccc1)c1ccccc1)Oc1c(Cl)cc(Cl)cc1Cl)n1cnc2ccccc21`, the TGI in [1], in assay [2], in assay [3], in assay [4], in assay [5] and in assay [6] was more than 100 µM in each case. Further, the TGI in assay [7], in assay [8], in assay [9] and in [10] was more than 100 µM each time.
For `N/C(CSCCSC/C(N)=N/O)=N\O`, the TGI in assay [1], in assay [3], in assay [4], in assay [5], in [6] and in assay [7] was more than 100 µM in each case. The TGI in assay [8], in assay [9] and in assay [10] was more than 100 µM each time.
In the case of `COC(=O)c1cc(C(=O)OC)cc(-c2ccc3c(c2)-c2nc4c(c(-c5ccc(OC)cc5)c2CC3)CCc2ccc(-c3cc(C(=O)OC)cc(C(=O)OC)c3)cc2-4)c1`, the TGI in [1], in [2], in assay [4], in assay [6], in [7] and in assay [8] was more than 100 µM each time. In addition, the TGI in assay [9] and in [10] was more than 100 µM throughout.
For the compound `Cc1ncc([N+](=O)[O-])n1CCNC(=O)CCCCn1ccnc1[N+](=O)[O-]`, the TGI in [1], in assay [2], in assay [3], in assay [4], in [5] and in [6] was more than 100 µM in each case. The TGI in [8], in assay [9] and in assay [10] was more than 100 µM throughout.
Turning to `COc1cc(/C=C/c2cc(=O)cc(/C=C/c3ccc(O)c(OC)c3)o2)ccc1O`, the TGI in assay [1] was more than 100 µM; in [2] it was more than 100 µM; in assay [4], more than 100 µM; in [5] it was more than 100 µM; in assay [6], more than 100 µM; in assay [7] it was more than 20.7 µM. For the same compound, the TGI in assay [8] is more than 100 µM; in assay [9], more than 100 µM; in assay [10], more than 95 µM.
Turning to `CCOC(=O)c1ccc(C(=O)/C(C(=O)OC(C)(C)C)=C2\CCCN2C)n1C`, the TGI in assay [2] was more than 100 µM; in assay [3], more than 100 µM; in assay [4], more than 100 µM; in assay [5], more than 100 µM; in [6] it was 95.1 µM; in assay [7] it was more than 100 µM. Moreover, the TGI in assay [8] is more than 100 µM; in [9], more than 100 µM; in assay [10], 77.8 µM.
On to `OCC1OC(O[C@H]2CN3[C@H](O)[C@@H](O)[C@H](O)[C@H]3C2O)C(O)C(O)C1O` (stereo partly specified), for which the TGI in [1], in assay [2], in assay [3], in [4], in [5] and in [6] was more than 100 µM each time. Besides, the TGI in [7], in assay [8] and in [9] was more than 100 µM throughout.
Turning to `CC(O)(C(=O)N(O)c1ccc(Cl)cc1)c1ccc(Cl)cc1` (stereo unspecified), the TGI in assay [1] was 46.1 µM; in [2] it was 92.4 µM; in [3], 34.4 µM; in [4], more than 100 µM; in [5], more than 100 µM; in [6], 97.5 µM. Further, the figures for the TGI in assay [7], in [8] and in [9] were 37.3 µM, 87.8 µM and more than 100 µM, respectively.

Source of the values: PubChem BioAssay (NCI).
